# Source: patent publication US20240207240A1, “Method for Improving or Treating Cognitive Dysfunction Complicating HIV-associated Cryptococcal Meningitis with Lenalidomide” (The First Affiliated Hospital Zhejiang University School of …, priority 2022, published 2024)
# Where “and” joins values, the source holds several entries; their conditions need not be identical. Equal values may be shown once. Read-outs that look alike come from different tables or passages of the source.
# Assays:
# [1] = test system: patients with cognitive dysfunction caused by HIV-associated CM-IRIS; type: in vivo, human; details: for ΔMoCA: week 24 - week 0, median
# [2] = test system: patients with cognitive dysfunction caused by HIV-associated CM-IRIS; type: in vivo, human; details: for ΔIHDS: week 24 - week 0, median
# CSF cytokines = assay: Detection of inflammatory cytokines in CSF (Human Cytokine/Chemokine/Growth Factor Panel A); type: in vivo; details: for CSF Apo. E / CSF CFH / CSF Complement C3 / CSF FGF-2 / CSF G-CSF / CSF GM-CSF / CSF GRO / CSF IFN-γ / CSF IL-1α / CSF IL-1β / CSF IL-2 / CSF IL-3 / CSF IL-4 / CSF IL-6 / CSF IL-8 / CSF IL-10 / CSF IL-12p40 / CSF IL-12p70 / CSF IL-13 / CSF IL-17α / CSF IP-10 / CSF MCP-1 / CSF MIP-1α / CSF MIP-1β / CSF PDGF-AA / CSF TNF-α / CSF apoA-I / CSF pTau 181 / CSF sCD40L / CSF tTau / CSF α-2-M / CSF αβ42: W 24, after 6 cycles lenalidomide
# Description: Detection of inflammatory cytokines in CSF: CSF samples were collected from the participants and centrifuged immediately; and the supernatant was stored at −80° C. until testing. 32 CSF cytokines were analyzed using the Human Cytokine/Chemokine/Growth Factor Panel A (Merck Millipore, St. Louis, USA): α-2-macroglobulin (α-2-M), apolipoprotein A-I (apoA-I), Apo-E, complement C3, complement factor H (CFH), fibroblast growth factor 2 (FGF-2), granulocyte-colony stimulating factor (G-CSF), granulocyte-macrophage colony-stimulating factor (GM-CSF), interferon-γ (IFN-γ), growth-regulated oncogene (GRO), soluble CD40 ligand (sCD40L), platelet-derived growth factor-AA (PDGF-AA), interleukin (IL)-12p40, IL-12p70, IL-13, IL-1α, IL-1β, IL-2, IL-3, IL-4, IL-6, IL-8, IL-10, IL-17α, monocyte chemoattractant protein-1 (MCP-1), macrophage inflammatory protein-la (MIP-la), MIP-1β, tumor necrosis factor-a (TNF-α), IL-17α, amyloid-β (1-42) (αβ42), total Tau (tTau) and phosphorylated Tau 181 (pTau181), The abbreviations of CSF cytokines are provided in Table 3.
# [3] = withdrawal for adverse event in the lenalidomide treatment cohort; type: in vivo, human; details: of 8 patients with cognitive dysfunction at enrollment
# Description: Screening process: 14 patients were included in the lenalidomide treatment cohort based on the inclusion and exclusion criteria: 8 had cognitive dysfunction at the time of enrollment. Among them, one patient withdrew from the study due to skin allergy, so only 7 patients were followed up for 24 weeks.
# Lenalidomide Treatment: Patients were treated with six cycles of lenalidomide (one cycle: […] for 3 weeks, followed by 1 week ceased lenalidomide) when they were enrolled. The drug was stopped at the end of 6 cycles.
# [4] = in vivo; cited from earlier work
# [5] = individual Patients 1-4 (cognitive improvement group)
# [6] = individual Patients 5-7 (cognitive non-improvement group)
# [7] = individual patients P1-P4 (cognitive improvement group)
# [8] = individual patients P5-P7 (cognitive non-improvement group)
structure (smiles),measurement,setting,value
Nc1cccc2c1CN(C1CCC(=O)NC1=O)C2=O (stereo not drawn) [lenalidomide],median MoCA score,"[1]; W24, after 6 cycles lenalidomide 25 mg/day (21 days on, 7 off), 7 patients, baseline 23.0 (13.0-24.0), P=0.018",26.0 (24.0-28.0)
same,memory score in the MoCA,"[1]; W24, baseline 1.0 (0-3.0), P=0.026",4.0 (3.0-5.0)
same,MoCA-W 24,[1]; [5],30 scores and 26 scores (2×) and 28 scores
same,MoCA-W 24,[1]; [6],24 scores and 25 scores and 19 scores
same,ΔMoCA,[1]; CI group,8.5 scores
same,ΔMoCA,[1]; CNI group,1.0 scores
same,median IHDS score,"[2]; W24, after 6 cycles lenalidomide, 7 patients, baseline 9.0 (2.5-10.5), P=0.028",11.0 (10.0-12.0)
same,recall of the four items in the IHDS,"[2]; W24, baseline 1.5 (1.0-3.5), P=0.042",4.0 (2.0-4.0)
same,IHDS-W 24,[2]; [5],10 scores (2×) and 11 scores and 12 scores
same,IHDS-W 24,[2]; [6],12 scores (2×) and 10 scores
same,ΔIHDS,[2]; CI group,5.25 scores
same,ΔIHDS,[2]; CNI group,1.5 scores
same,change in CSF G-CSF level after treatment,"CSF cytokines; CI group, P<0.001",significant decline
same,change in CSF GRO level after treatment,"CSF cytokines; CI group, P<0.001",significant decline
same,change in CSF IL-6 level after treatment,"CSF cytokines; CI group, P<0.001",significant decline
same,change in CSF IL-8 level after treatment,"CSF cytokines; CI group, P<0.001",significant decline
same,change in CSF IL-10 level after treatment,"CSF cytokines; CI group, P<0.001",significant decline
same,change in CSF CFH level after treatment,"CSF cytokines; CI group, P=0.002",significant decline
same,change in CSF TNF-α level after treatment,"CSF cytokines; CI group, P=0.002",significant decline
same,change in CSF α-2-M level after treatment,"CSF cytokines; CI group, P=0.003",significant decline
same,change in CSF tTau level after treatment,"CSF cytokines; CNI group, P=0.030",increased significantly
same,CSF Apo. E,CSF cytokines; [7],5683 pg/mL and 1764 pg/mL and 2487 pg/mL and 1873 pg/mL
same,CSF CFH,CSF cytokines; [7],4617 pg/mL and 2381 pg/mL and 2275 pg/mL and 1603 pg/mL
same,CSF Complement C3,CSF cytokines; [7],10475 pg/mL and 4010 pg/mL and 818.22 pg/mL and 1909 pg/mL
same,CSF FGF-2,CSF cytokines; [7],16.08 pg/mL
same,CSF G-CSF,CSF cytokines; [7],22.02 pg/mL and 3.57 pg/mL (2×) and 5.99 pg/mL
same,CSF GM-CSF,CSF cytokines; [7],0.98 pg/mL and 1.02 pg/mL and 1.94 pg/mL and 2.81 pg/mL
same,CSF GRO,CSF cytokines; [7],111.65 pg/mL and 63.2 pg/mL and 32 pg/mL and 149.74 pg/mL
same,CSF IFN-γ,CSF cytokines; [7],1.31 pg/mL and 0.7 pg/mL and 0.66 pg/mL and 1.6 pg/mL
same,CSF IL-1α,CSF cytokines; [7],1.91 pg/mL and 1.71 pg/mL and 1.65 pg/mL and 1.37 pg/mL
same,CSF IL-1β,CSF cytokines; [7],1.15 pg/mL and 1.09 pg/mL and 0.88 pg/mL and 1.11 pg/mL
same,CSF IL-2,CSF cytokines; [7],0.72 pg/mL and 0.69 pg/mL and 0.64 pg/mL and 0.81 pg/mL
same,CSF IL-3,CSF cytokines; [7],0.41 pg/mL and 0.44 pg/mL and 0.43 pg/mL and 0.34 pg/mL
same,CSF IL-4,CSF cytokines; [7],1.49 pg/mL and 2.22 pg/mL and 0.82 pg/mL (2×)
same,CSF IL-6,CSF cytokines; [7],12.8 pg/mL and 63.58 pg/mL and 2.85 pg/mL (2×)
same,CSF IL-8,CSF cytokines; [7],175.42 pg/mL and 164.92 pg/mL and 64.25 pg/mL and 118.93 pg/mL
same,CSF IL-10,CSF cytokines; [7],4.21 pg/mL and 4.14 pg/mL and 2.45 pg/mL and 4.07 pg/mL
same,CSF IL-12p40,CSF cytokines; [7],1.78 pg/mL and 0.38 pg/mL and 0.92 pg/mL and 10.92 pg/mL
same,CSF IL-12p70,CSF cytokines; [7],2.46 pg/mL and 0.67 pg/mL and 2.09 pg/mL and 1.34 pg/mL
same,CSF IL-13,CSF cytokines; [7],1.19 pg/mL and 0.8 pg/mL and 0.71 pg/mL and 1.09 pg/mL
same,CSF IL-17α,CSF cytokines; [7],0.62 pg/mL
same,CSF IP-10,CSF cytokines; [7],12150 pg/mL and 4404 pg/mL and 3063 pg/mL and 12231 pg/mL
same,CSF MCP-1,CSF cytokines; [7],1624 pg/mL and 2268 pg/mL and 987.31 pg/mL and 923.8 pg/mL
same,CSF MIP-1α,CSF cytokines; [7],4.61 pg/mL and 18.47 pg/mL and 3.38 pg/mL (2×)
same,CSF MIP-1β,CSF cytokines; [7],23.79 pg/mL and 31.7 pg/mL and 9.58 pg/mL and 5.86 pg/mL
same,CSF PDGF-AA,CSF cytokines; [7],5.66 pg/mL and 6.92 pg/mL and 2.78 pg/mL (2×)
same,CSF TNF-α,CSF cytokines; [7],7.46 pg/mL and 6.82 pg/mL and 2.46 pg/mL and 8.22 pg/mL
same,CSF apoA-I,CSF cytokines; [7],6850 pg/mL and 683.32 pg/mL and 668.25 pg/mL and 788.79 pg/mL
same,CSF pTau 181,CSF cytokines; [7],61.43 pg/mL and 38.37 pg/mL and 42.96 pg/mL and 19.12 pg/mL
same,CSF sCD40L,CSF cytokines; [7],2.49 pg/mL (3×) and 4.91 pg/mL
same,CSF tTau,CSF cytokines; [7],1594 pg/mL and 431.47 pg/mL and 752.55 pg/mL and 234.58 pg/mL
same,CSF α-2-M,CSF cytokines; [7],10777 pg/mL and 4765 pg/mL and 3814 pg/mL and 2942 pg/mL
same,CSF αβ42,CSF cytokines; [7],2364 pg/mL and 708.02 pg/mL and 1573 pg/mL and 693.92 pg/mL
same,CSF Apo. E,CSF cytokines; [8],5462 pg/mL and 2829 pg/mL and 2633 pg/mL
same,CSF CFH,CSF cytokines; [8],3699 pg/mL and 1253 pg/mL and 2446 pg/mL
same,CSF Complement C3,CSF cytokines; [8],4249 pg/mL and 2914 pg/mL and 1335 pg/mL
same,CSF FGF-2,CSF cytokines; [8],13.73 pg/mL and 48.91 pg/mL
same,CSF G-CSF,CSF cytokines; [8],2.84 pg/mL
same,CSF GM-CSF,CSF cytokines; [8],2.58 pg/mL and 1.29 pg/mL (2×)
same,CSF GRO,CSF cytokines; [8],117.5 pg/mL and 44.05 pg/mL and 73.45 pg/mL
same,CSF IFN-γ,CSF cytokines; [8],1.67 pg/mL and 1.01 pg/mL and 0.66 pg/mL
same,CSF IL-1α,CSF cytokines; [8],3.37 pg/mL and 1.95 pg/mL and 1.42 pg/mL
same,CSF IL-1β,CSF cytokines; [8],2.16 pg/mL and 1.03 pg/mL and 1.13 pg/mL
same,CSF IL-2,CSF cytokines; [8],1.44 pg/mL and 0.7 pg/mL and 0.74 pg/mL
same,CSF IL-3,CSF cytokines; [8],0.82 pg/mL and 0.52 pg/mL and 0.3 pg/mL
same,CSF IL-4,CSF cytokines; [8],2.71 pg/mL and 2.22 pg/mL and 0.49 pg/mL
same,CSF IL-6,CSF cytokines; [8],2.85 pg/mL
same,CSF IL-8,CSF cytokines; [8],234.05 pg/mL and 62.23 pg/mL and 171.82 pg/mL
same,CSF IL-10,CSF cytokines; [8],2.45 pg/mL and 3.7 pg/mL
same,CSF IL-12p40,CSF cytokines; [8],1.65 pg/mL and 1.13 pg/mL and 0.52 pg/mL
same,CSF IL-12p70,CSF cytokines; [8],2.69 pg/mL and 1.25 pg/mL and 1.44 pg/mL
same,CSF IL-13,CSF cytokines; [8],1.91 pg/mL and 0.99 pg/mL and 0.92 pg/mL
same,CSF IL-17α,CSF cytokines; [8],1.13 pg/mL and 0.62 pg/mL
same,CSF IP-10,CSF cytokines; [8],13221 pg/mL and 3398 pg/mL and 9823 pg/mL
same,CSF MCP-1,CSF cytokines; [8],3992.12 pg/mL and 981.12 pg/mL and 3011 pg/mL
same,CSF MIP-1α,CSF cytokines; [8],3.38 pg/mL and 5 pg/mL
same,CSF MIP-1β,CSF cytokines; [8],31.83 pg/mL and 13.92 pg/mL and 17.91 pg/mL
same,CSF PDGF-AA,CSF cytokines; [8],6.89 pg/mL and 2.9 pg/mL and 3.99 pg/mL
same,CSF TNF-α,CSF cytokines; [8],8.22 pg/mL and 3.01 pg/mL and 5.21 pg/mL
same,CSF apoA-I,CSF cytokines; [8],2047.9 pg/mL and 833.9 pg/mL and 1214 pg/mL
same,CSF pTau 181,CSF cytokines; [8],85.14 pg/mL and 48.8 pg/mL and 36.34 pg/mL
same,CSF sCD40L,CSF cytokines; [8],2.49 pg/mL
same,CSF tTau,CSF cytokines; [8],1309.82 pg/mL and 681.32 pg/mL and 628.5 pg/mL
same,CSF α-2-M,CSF cytokines; [8],7109 pg/mL and 2778 pg/mL and 4331 pg/mL
same,CSF αβ42,CSF cytokines; [8],2453 pg/mL and 1168 pg/mL and 1285 pg/mL
same,patients withdrawn from the study due to skin allergy,[3],one
same,side effects,[4],milder than those of thalidomide
